Results taken from patent US6271238A, “Acetamide derivatives and protease inhibitors” (Nippon Kayaku Kabushiki Kaisha, priority 1996, dated 2001).

Assays:
Type in all cases: biochemical
human chymase = molecular target: T1, human chymase (Homo sapiens, UniProt P23946); experiment: Inhibitory activity on human chymase (angiotensin I as substrate); settings: for IC50: substrate angiotensin I, pH 8.0, 37° C., 60 min, read-out: Human Chymase (IC50: nM), 50% inhibitory concentration
T1 construct: 60 g human tonsils were finely divided by scissors and a scalpel; from tissue; host or cells: human tonsils
T1 sequence (P23946 22-247): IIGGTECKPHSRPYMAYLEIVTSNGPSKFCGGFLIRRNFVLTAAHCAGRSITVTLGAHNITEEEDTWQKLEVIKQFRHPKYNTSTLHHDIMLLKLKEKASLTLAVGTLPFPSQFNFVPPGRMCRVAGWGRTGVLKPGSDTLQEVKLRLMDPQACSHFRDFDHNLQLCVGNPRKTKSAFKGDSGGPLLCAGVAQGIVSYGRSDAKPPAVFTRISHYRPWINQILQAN
Description: It is known that chymase is present in tissues of various animals, and its isolation and purification methods are described in Anal. Biochem., 137, 449 (1984) and FEBS Letters, 323, 119 (1993). In the present invention, chymase was purified by the methods described in these literatures, and the present compounds were examined for inhibitory activity on chymase, inhibitory action on activation of mast cells and eosinophils, and pharmacological action in animals. Hereinafter, specific methods are described. 50 g rat tongue was finely divided by scissors and a scalpel, suspended in 0.1 M phosphate buffer (pH 8.0), and disrupted by a Polytron homogenizer for 5 minutes to prepare a crude chymase enzyme solution. […] The supernatant was applied to an octyl Sepharose 4B column (40×100 mm) previously equilibrated with 0.1 M phosphate buffer (pH 8.0) containing 2 M sodium chloride and 5% ammonium sulfate, and the protein was eluted with a linear concentration gradient of from 2 M to 0 M sodium chloride. An active fraction decomposing succinyl leucyl leucyl valyl tyrosyl methylcumarylamide (hereinafter referred to as the synthetic chymase substrate, a product of Peptide Kenkyusho) was recovered and concentrated and this product was used as a purified rat chymase in the following activity measurement. (B) Preparation of human chymase 60 g human tonsils were finely divided by scissors and a scalpel, suspended in 0.1 M phosphate buffer (pH 8.0), and A-disrupted by a Polytron homogenizer for 5 minutes to prepare a crude chymase enzyme solution. It was centrifuged at 22000×g for 30 minutes, and the precipitates were used as a chymase enzyme fraction. […] The supernatant was concentrated by an ultrafiltration membrane, then applied to […] column (6.0×300 mm), and eluted with 0.1 M phosphate buffer (pH 8.0). An active fraction decomposing the synthetic chymase substrate was recovered and concentrated and this product was used as a purified human chymase in the following activity measurement. (D) Measurement of inhibitory activity on chymase (b) Measurement using angiotensin I as substrate The inhibitory activity on the human chymase and dog chymase was measured using angiotensin I (Peptide Kenkyusho) as substrate besides the above synthetic substrate. […] After the end of the reaction, produced angiotensin II was immediately measured by high performance liquid chromatography to determine the activity of the chymase to calculate 50% inhibitory concentration (IC50: nM). The test was conducted several times. Chymase was prepared for each test in the manner described above. The compounds examined were compounds prepared in the above-described examples. […] 50% Inhibitory concentration (IC50: nM) of each compound toward rat chymase, dog […] human […] Substrate: Succinyl leucyl leucyl valyl tyrosyl methylcoumarylamide (for rat […] angiotensin I (for human and dog chymase)

other human proteases = experiment: Inhibitory activity on other human proteases (summary)
Description: (E) Measurement of inhibitory activity on proteases other than chymase
The inhibitory activity of the present compounds on human elastase, human cathepsin G, human urokinase, human thrombin, human plasmin, and human factor Xa was determined using their corresponding synthetic substrates in the same manner as for chymase. All the above proteases were those commercially available from Boehringer Mannheim or purified by a combination of known methods. The synthetic substrates were those produced by Peptide Renkyusho. The synthetic substrates for the respective proteases are as follows.
The test was conducted several times. Chymase was prepared for each test in the manner described above. The compounds examined were compounds prepared in the above-described examples.

dog chymase = molecular target: T2, dog chymase (Canis lupus familiaris, UniProt P21842); experiment: Inhibitory activity on dog chymase (angiotensin I as substrate); settings: pH 8.0, 37° C., 60 min, read-out: Dog Chymase (IC50: nM), 50% inhibitory concentration
T2 construct: 60 g dog heart was finely divided by scissors and a scalpel; from tissue; host or cells: dog heart
T2 sequence (P21842 22-249): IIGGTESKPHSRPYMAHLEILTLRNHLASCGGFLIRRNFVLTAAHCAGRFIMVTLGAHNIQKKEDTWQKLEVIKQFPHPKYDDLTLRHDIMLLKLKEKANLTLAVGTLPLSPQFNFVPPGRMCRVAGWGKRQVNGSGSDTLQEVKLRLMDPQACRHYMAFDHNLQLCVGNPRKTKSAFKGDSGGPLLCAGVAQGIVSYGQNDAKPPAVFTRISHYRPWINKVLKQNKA
Description: It is known that chymase is present in tissues of various animals, and its isolation and purification methods are described in Anal. Biochem., 137, 449 (1984) and FEBS Letters, 323, 119 (1993). In the present invention, chymase was purified by the methods described in these literatures, and the present compounds were examined for inhibitory activity on chymase, inhibitory action on activation of mast cells and eosinophils, and pharmacological action in animals. Hereinafter, specific methods are described. (c) Preparation of dog chymase 60 g dog heart was finely divided by scissors and a scalpel, suspended in 0.1 M phosphate buffer (pH 8.0), and disrupted by a Polytron homogenizer for 5 minutes to prepare a crude chymase enzyme solution. It was centrifuged at 22000×g for 15 minutes, and the precipitates were used as a chymase enzyme fraction. […] An active fraction decomposing the synthetic chymase substrate was recovered and concentrated and this product was used as a purified dog chymase in the following activity measurement. (D) Measurement of inhibitory activity on chymase (b) Measurement using angiotensin I as substrate The inhibitory activity on the human chymase and dog chymase was measured using angiotensin I (Peptide Kenkyusho) as substrate besides the above synthetic substrate. […] After the end of the reaction, produced angiotensin II was immediately measured by high performance liquid chromatography to determine the activity of the chymase to calculate 50% inhibitory concentration (IC50: nM). The test was conducted several times. Chymase was prepared for each test in the manner described above. The compounds examined were compounds prepared in the above-described examples. […] 50% Inhibitory concentration (IC50: nM) of each compound toward rat chymase, dog […] human […] Substrate: Succinyl leucyl leucyl valyl tyrosyl methylcoumarylamide (for rat […] angiotensin I (for human and dog chymase)

rat chymase = molecular target: T3, rat chymase (Rattus norvegicus, UniProt P09650); experiment: Inhibitory activity on rat chymase (synthetic substrate); settings: substrate succinyl leucyl leucyl valyl tyrosyl methylcoumarylamide; pH 8.0, 37° C., 15 min; read-out: Rat Chymase (IC50: nM), 50% inhibitory concentration
T3 construct: 50 g rat tongue was finely divided by scissors and a scalpel; from tissue; host or cells: rat tongue
T3 sequence (P09650 21-260): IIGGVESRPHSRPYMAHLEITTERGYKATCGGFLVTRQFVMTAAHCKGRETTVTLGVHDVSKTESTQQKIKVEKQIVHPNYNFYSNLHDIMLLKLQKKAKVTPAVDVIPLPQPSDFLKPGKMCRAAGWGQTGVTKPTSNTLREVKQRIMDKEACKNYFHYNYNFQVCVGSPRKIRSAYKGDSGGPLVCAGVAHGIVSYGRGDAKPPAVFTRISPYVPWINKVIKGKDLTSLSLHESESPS
Description: In the present invention, chymase was purified by the methods described in these literatures, and the present compounds were examined for inhibitory activity on chymase, inhibitory action on activation of mast cells and eosinophils, and pharmacological action in animals. Hereinafter, specific methods are described. […] 50 g rat tongue was finely divided by scissors and a scalpel, suspended in 0.1 M phosphate buffer (pH 8.0), and disrupted by a Polytron homogenizer for 5 minutes to prepare a crude chymase enzyme solution. […] The supernatant was applied to an octyl Sepharose 4B column (40×100 mm) previously equilibrated with 0.1 M phosphate buffer (pH 8.0) containing 2 M sodium chloride and 5% ammonium sulfate, and the protein was eluted with a linear concentration gradient of from 2 M to 0 M sodium chloride. […] (D) Measurement of inhibitory activity on chymase (a) Measurement using the synthetic substrate The synthetic chymase substrate was used for measurement of the inhibitory activity on the rat chymase as a subtrate, and the fluorescence of formed aminomethylcoumarin after reaction was measured by a spectrophotometer. […] The test was conducted several times. Chymase was prepared for each test in the manner described above. The compounds examined were compounds prepared in the above-described examples. […] Succinyl leucyl leucyl valyl tyrosyl methylcoumarylamide (for rat […] angiotensin I (for human and dog chymase)

| Compound | inhibitory activity on human chymase, in words (human chymase) | IC50 (human chymase) [nM] | inhibitory activity on other human proteases, in words (other human proteases) | IC50 (dog chymase) [nM] | IC50 (rat chymase) [nM] |
| --- | --- | --- | --- | --- | --- |
| O=C(Cn1c(-c2ccccc2)ncc(NC(=O)OCc2ccncc2)c1=O)NC(Cc1ccccc1)C(=O)C(=O)CCCOc1ccccn1 (centres unmarked) [Compound 78, 2-{6-oxo-2-phenyl-5-(4-pyridylmethyloxycarbonylamino)-1,6-dihydropyrimidine-1-yl}-N-{2,3-dioxo-1-phenylmethyl-6-(2-pyridyloxy)}hexylacetamide] | strong inhibitory activity on human chymase | 1.6 | no inhibitory activity on other human proteases | 0.32 | 42 |
| CC(=O)Nc1cnc(-c2ccccc2)n(CC(=O)NC(Cc2ccccc2)C(=O)C(=O)CCCn2ccccc2=O)c1=O (centres unmarked) [Compound 76] |  | 122 |  | 0.19 | 190 |
| Nc1cnc(-c2ccccc2)n(CC(=O)NC(Cc2ccccc2)C(=O)C(=O)CCCC(=O)O)c1=O (centres unmarked) [Compound 48] |  | 314 |  | 33 | > 10000 |
| O=C(Cn1c(-c2ccccc2)ncc(NS(=O)(=O)Cc2ccccc2)c1=O)NC(Cc1ccccc1)C(=O)C(=O)CCCOc1ccccn1 (centres unmarked) [Compound 77, 2-(5-Benzylsulfonylamino-6-oxo-2-phenyl-1,6-dihydropyrimidine-1-yl)-N-{2,3-dioxo-1-phenylmethyl-6-(2-pyridyloxy)}hexylacetamide] | strong inhibitory activity on human chymase | 7 | no inhibitory activity on other human proteases | 1.4 | 48 |
| CC(=O)C(=O)C(Cc1ccccc1)NC(=O)Cn1c(-c2ccccc2)ncc(NC(=O)OC(C)(C)C)c1=O (centres unmarked) [Compound 37, 2-(5-t-Butyloxycarbonylamino-6-oxo-1,6-dihydro-2-phenyl-1-pyrimidinyl)-N-(2,3-dioxo-1-phenylmethyl) butylacetamide] |  | 673 |  | 22 | 2900 |
| CC(=O)C(=O)C(Cc1cccc(C)c1)NC(=O)Cn1c(-c2ccccc2)ncc(N)c1=O (centres unmarked) [Compound 60] |  | 101 |  | 9.1 | 450 |
| Nc1cnc(-c2ccccc2)n(CC(=O)NC(Cc2ccccc2)C(=O)C(=O)c2ccccc2)c1=O (centres unmarked) [Compound 46] |  | 1590 |  | 494 | 2800 |
| CC(=O)C(=O)C(Cc1ccc(O)c(F)c1)NC(=O)Cn1c(-c2ccccc2)ncc(N)c1=O (centres unmarked) [Compound 50] | strong inhibitory activity on human chymase | 73 | no inhibitory activity on other human proteases | 19 | 690 |
| CC(C)(C)OC(=O)Nc1cnc(-c2ccccc2)n(CC(=O)NC(Cc2ccccc2)C(=O)C(=O)CCc2ccccc2)c1=O (centres unmarked) [Compound 41] |  | 148 |  | 13 | 740 |
| O=C(Cn1c(-c2ccccc2)ncc(NC(=O)C2CCOC2)c1=O)NC(Cc1ccccc1)C(=O)C(=O)CCCc1ccccc1 (centres unmarked) [Compound 81] |  | 114 |  | 0.29 | 150 |
| CC(=O)C(=O)C(Cc1ccc(Cl)cc1)NC(=O)Cn1c(-c2ccccc2)ncc(N)c1=O (centres unmarked) [Compound 58] |  | 2850 |  | 71 | 340 |
| CC(=O)C(=O)C(Cc1ccc(F)cc1)NC(=O)Cn1c(-c2ccccc2)ncc(NC(=O)OC(C)(C)C)c1=O (centres unmarked) [Compound 55] |  | > 10000 |  | 98 | 920 |
| Nc1cnc(-c2ccccc2)n(CC(=O)NC(Cc2ccccc2)C(=O)C(=O)CCCOc2ccccn2)c1=O (centres unmarked) [Compound 75] | strong inhibitory activity on human chymase | 2.6 | no inhibitory activity on other human proteases | 1 | 220 |
| CC(=O)C(=O)C(Cc1cccc(Cl)c1)NC(=O)Cn1c(-c2ccccc2)ncc(N)c1=O (centres unmarked) [Compound 62] |  | 131 |  | 5 | 200 |
